From patent US20240390340A1 (INCYTE CORPORATION, priority 2023, published 2024)
Where two headings read alike, the source gives them in different places.

Experiments:
KRAS G12V = KRAS G12V (Homo sapiens, UniProt P01116, G12V); test: GDP-GTP exchange assay (bodipy-GDP/GppNHp, SOS1), KRAS G12V; type: biochemical
KRAS G12D = KRAS G12D (Homo sapiens, UniProt P01116, G12D); test: GDP-GTP exchange assay (bodipy-GDP/GppNHp, SOS1), KRAS G12D; type: biochemical
[1] = KRAS G12V mutant, value for the most potent isomer quoted for certain compounds, read-out: G12V (KRAS G12V exchange assay IC50)
[2] = bodipy-loaded KRAS G12D 2.5 nM, 4 h pre-incubation, value for the most potent isomer quoted for certain compounds, read-out: G12D (KRAS G12D exchange assay IC50)
[3] = Table H, column G12V, for compounds isolated as several atropisomers/diastereoisomers the value for the most potent isomer is quoted, read-out: KRAS G12V exchange assay IC50
[4] = Table H, column G12D, for compounds isolated as several atropisomers/diastereoisomers the value for the most potent isomer is quoted, read-out: KRAS G12D exchange assay IC50

KRAS G12D, sequence (P01116 1-188 isoform P01116-2 G12D): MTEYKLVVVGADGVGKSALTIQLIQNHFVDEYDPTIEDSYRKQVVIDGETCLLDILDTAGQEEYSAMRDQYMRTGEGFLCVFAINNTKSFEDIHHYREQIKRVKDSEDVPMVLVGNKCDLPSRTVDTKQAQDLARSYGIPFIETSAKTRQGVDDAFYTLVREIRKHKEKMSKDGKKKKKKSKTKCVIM
KRAS G12V, sequence (P01116 1-188 isoform P01116-2 G12V): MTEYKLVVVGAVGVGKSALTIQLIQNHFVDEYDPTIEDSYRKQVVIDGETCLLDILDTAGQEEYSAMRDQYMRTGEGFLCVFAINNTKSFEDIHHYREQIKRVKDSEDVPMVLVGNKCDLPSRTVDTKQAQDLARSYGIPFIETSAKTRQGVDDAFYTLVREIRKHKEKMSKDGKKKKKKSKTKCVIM

Row | Compound | IC50 (KRAS G12V; [1]) | IC50 (KRAS G12D; [2]) | IC50 (KRAS G12V; [3]) | IC50 (KRAS G12D; [4])
1 | COc1cccnc1O[C@H]1C[C@H](c2cc3c(C)nc4c(F)c(-c5cccc(Cl)c5Cl)c(CCC#N)cc4c3n2[C@H]2[C@H]3CN[C@@H]2C3)N(C(=O)C2CC2)C1 [Example 307] | 100 to 1000 nM | 100 to 1000 nM |  | 
2 | COC(=O)c1ncn([C@H]2C[C@H](c3cc4c(C)nc5c(F)c(-c6cccc(Cl)c6Cl)c(CCC#N)cc5c4n3[C@H]3[C@H]4CN[C@@H]3C4)N(C(=O)C3CC3)C2)n1 [Example 348] | ≤ 100 nM | ≤ 100 nM |  | 
3 | Cc1nc2c(F)c(-c3cccc(Cl)c3Cl)c(CCC#N)cc2c2c1cc([C@H]1C[C@H](n3nc(CC#N)nc3C)CN1C(=O)C1CC1)n2[C@H]1[C@H]2CN[C@@H]1C2 [Example 351] | ≤ 100 nM | ≤ 100 nM |  | 
4 | Cc1ccc(CO[C@H]2C[C@H](c3cc4c(C)nc5c(F)c(-c6cccc(Cl)c6Cl)c(CCC#N)cc5c4n3[C@H]3[C@H]4CN[C@@H]3C4)N(C(=O)C3CC3)C2)cc1 [Example 92] | ≤ 100 nM | ≤ 100 nM |  | 
5 | Cc1nc2c(F)c(-c3cccc(Cl)c3Cl)c(CCC#N)cc2c2c1cc([C@H]1C[C@H](OC[C@@H]3CCOC3)CN1C(=O)C1CC1)n2[C@H]1[C@H]2CN[C@@H]1C2 [Example 373] | ≤ 100 nM | ≤ 100 nM |  | 
6 | Cc1nc2c(F)c(-c3cccc(Cl)c3Cl)c(CCC#N)cc2c2c1cc([C@H]1C[C@H](Oc3ccc(N4CCOCC4)nc3)CN1C(=O)C1CC1)n2[C@H]1[C@H]2CN[C@@H]1C2 [Example 36, 3-(1-((1R,4R,5S)-2-Azabicyclo[2.1.1]hexan-5-yl)-2-((2R,4S)-1-(cyclopropanecarbonyl)-4-((6-morpholinopyridin-3-yl)oxy)pyrrolidin-2-yl)-7-(2,3-dichlorophenyl)-6-fluoro-4-methyl-1H-pyrrolo[3,2-c]quinolin-8-yl)propanenitrile] |  |  | ≤ 100 nM | ≤ 100 nM
7 | N#CCCc1cc2c(nc(C3CC4CCCC3N4)c3cc([C@H]4C[C@H](OCc5c(F)cccc5F)CN4C(=O)C4CC4)n([C@H]4[C@H]5CN[C@@H]4C5)c32)c(F)c1-c1cccc(Cl)c1Cl (some centres unmarked) [Example 246] | ≤ 100 nM | 100 to 1000 nM |  | 
8 | Cc1nc2c(F)c(-c3cccc(Cl)c3Cl)c(CCC#N)cc2c2c1cc([C@H]1C[C@H](Oc3nccc4ccccc34)CN1C(=O)C1CC1)n2[C@H]1[C@H]2CN[C@@H]1C2 [Example 131] | ≤ 100 nM | ≤ 100 nM |  | 
9 | Cc1nc2c(F)c(-c3cccc(Cl)c3Cl)c(CCC#N)cc2c2c1cc([C@H]1C[C@H](n3cc(C4(C)CCCCC4)nn3)CN1C(=O)C1CC1)n2[C@H]1[C@H]2CN[C@@H]1C2 [Example 66, 3-(1-((1R,4R,5S)-2-Azabicyclo[2.1.1]hexan-5-yl)-2-((2R,4S)-1-(cyclopropanecarbonyl)-4-(4-(1-methylcyclohexyl)-1H-1,2,3-triazol-1-yl)pyrrolidin-2-yl)-7-(2,3-dichlorophenyl)-6-fluoro-4-methyl-1H-pyrrolo[3,2-c]quinolin-8-yl)propanenitrile] |  |  | ≤ 100 nM | ≤ 100 nM
10 | Cc1nc2c(F)c(-c3cccc(Cl)c3Cl)c(CCC#N)cc2c2c1cc([C@H]1C[C@H](Oc3ccnn3C)CN1C(=O)C1CC1)n2[C@H]1[C@H]2CN[C@@H]1C2 [Example 175] | ≤ 100 nM | ≤ 100 nM |  | 
11 | COc1ncc(Cl)cc1O[C@H]1C[C@H](c2cc3c(C)nc4c(F)c(-c5cccc(Cl)c5Cl)c(CCC#N)cc4c3n2[C@H]2[C@H]3CN[C@@H]2C3)N(C(=O)C2CC2)C1 [Example 448] | ≤ 100 nM | ≤ 100 nM |  | 
12 | Cc1nc2c(F)c(-c3cccc(Cl)c3Cl)c(CCC#N)cc2c2c1cc([C@H]1C[C@H](OCc3ccccc3S(C)(=O)=O)CN1C(=O)C1CC1)n2[C@H]1[C@H]2CN[C@@H]1C2 [Example 163] | ≤ 100 nM | ≤ 100 nM |  | 
13 | Cc1nc2c(F)c(-c3cccc(Cl)c3Cl)c(CCC#N)cc2c2c1cc([C@H]1C[C@H](OC3CC3C)CN1C(=O)C1CC1)n2[C@H]1[C@H]2CN[C@@H]1C2 (some centres unmarked) [Example 379] | ≤ 100 nM | ≤ 100 nM |  | 
14 | CCn1cc(CO[C@H]2C[C@H](c3cc4c(C)nc5c(F)c(-c6cccc(Cl)c6Cl)c(CCC#N)cc5c4n3[C@H]3[C@H]4CN[C@@H]3C4)N(C(=O)C3CC3)C2)nn1 [Example 231] | ≤ 100 nM | ≤ 100 nM |  | 
15 | C[C@@H](O)c1nc2c(F)c(-c3cccc(Cl)c3Cl)c(CCC#N)cc2c2c1cc([C@H]1C[C@H](Oc3cc(F)ccn3)CN1C(=O)C1CC1)n2[C@H]1C2CNC1C2 (some centres unmarked) [Example 425] | ≤ 100 nM | ≤ 100 nM |  | 
16 | Cc1ccnc(O[C@H]2C[C@H](c3cc4c(C)nc5c(F)c(-c6cccc(Cl)c6Cl)c(CCC#N)cc5c4n3[C@H]3[C@H]4CN[C@@H]3C4)N(C(=O)C3CC3)C2)c1 [Example 422] | ≤ 100 nM | ≤ 100 nM |  | 
17 | Cc1nc2c(F)c(-c3cccc(Cl)c3Cl)c(CCC#N)cc2c2c1cc([C@H]1C[C@H](n3cc(C4(C(C)(F)F)CC4)nn3)CN1C(=O)C1CC1)n2[C@H]1[C@H]2CN[C@@H]1C2 [Example 382] | ≤ 100 nM | ≤ 100 nM |  | 

Results, then the molecule that gave them:

Row | IC50 (KRAS G12V; [1]) | IC50 (KRAS G12D; [2]) | IC50 (KRAS G12V; [3]) | IC50 (KRAS G12D; [4]) | Compound
18 | ≤ 100 nM | ≤ 100 nM |  |  | Cc1cc(F)ncc1O[C@H]1C[C@H](c2cc3c(C)nc4c(F)c(-c5cccc(Cl)c5Cl)c(CCC#N)cc4c3n2[C@H]2[C@H]3CN[C@@H]2C3)N(C(=O)C2CC2)C1 [Example 283]
19 | ≤ 100 nM | ≤ 100 nM |  |  | Cc1nc(CO[C@H]2C[C@H](c3cc4c(C)nc5c(F)c(-c6cccc(Cl)c6Cl)c(CCC#N)cc5c4n3[C@H]3[C@H]4CN[C@@H]3C4)N(C(=O)C3CC3)C2)sc1C [Example 358]
20 | ≤ 100 nM | ≤ 100 nM |  |  | Cc1nc2c(F)c(-c3cccc(Cl)c3Cl)c(CCC#N)cc2c2c1cc([C@H]1C[C@H](n3cc4c(n3)CCC4)CN1C(=O)C1CC1)n2[C@H]1[C@H]2CN[C@@H]1C2 [Example 356]
21 | ≤ 100 nM | ≤ 100 nM |  |  | Cc1nc2c(F)c(-c3cccc(Cl)c3Cl)c(CCC#N)cc2c2c1cc([C@H]1C[C@H](Oc3nccs3)CN1C(=O)C1CC1)n2[C@H]1[C@H]2CN[C@@H]1C2 [Example 341]
22 | ≤ 100 nM | ≤ 100 nM |  |  | Cc1c(O[C@H]2C[C@H](c3cc4c(C)nc5c(F)c(-c6cccc(Cl)c6Cl)c(CCC#N)cc5c4n3[C@H]3[C@H]4CN[C@@H]3C4)N(C(=O)C3CC3)C2)ccnc1Cl [Example 295]
23 | ≤ 100 nM | ≤ 100 nM |  |  | Cc1nc2c(F)c(-c3cccc(Cl)c3Cl)c(CCC#N)cc2c2c1cc([C@H]1C[C@H](Oc3ccnc(N4CC(OC(F)F)C4)c3)CN1C(=O)C1CC1)n2[C@H]1[C@H]2CN[C@@H]1C2 [Example 368]
24 | ≤ 100 nM | ≤ 100 nM |  |  | Cc1nc2c(F)c(-c3cccc(Cl)c3Cl)c(CCC#N)cc2c2c1cc([C@H]1C[C@H](OCc3cccc(F)c3C#N)CN1C(=O)C1CC1)n2[C@H]1[C@H]2CN[C@@H]1C2 [Example 156]
25 | ≤ 100 nM | ≤ 100 nM |  |  | Cc1nc2c(F)c(-c3cccc(Cl)c3Cl)c(CCC#N)cc2c2c1cc([C@H]1C[C@H](n3nnc(-c4ccccc4)n3)CN1C(=O)C1CC1)n2[C@H]1[C@H]2CN[C@@H]1C2 [Example 399]
26 | ≤ 100 nM | ≤ 100 nM |  |  | Cc1nc2c(F)c(-c3cccc(Cl)c3Cl)c(CCC#N)cc2c2c1cc([C@H]1C[C@H](O[C@H]3CCOC3)CN1C(=O)C1CC1)n2[C@H]1[C@H]2CN[C@@H]1C2 [Example 365]
27 | ≤ 100 nM | ≤ 100 nM |  |  | Cc1nc2c(F)c(-c3cccc(Cl)c3Cl)c(CCC#N)cc2c2c1cc([C@H]1C[C@H](Oc3ccccc3C#N)CN1C(=O)C1CC1)n2[C@H]1[C@H]2CN[C@@H]1C2 [Example 249]
28 | ≤ 100 nM | ≤ 100 nM |  |  | Cc1nc2c(F)c(-c3cccc(Cl)c3Cl)c(CCC#N)cc2c2c1cc([C@H]1C[C@H](OCc3nccs3)C(C)(C)N1C(=O)C1CC1)n2[C@H]1[C@H]2CN[C@@H]1C2 [Example 405]
29 | ≤ 100 nM | ≤ 100 nM |  |  | Cc1nc2c(F)c(-c3cccc(Cl)c3Cl)c(CCC#N)cc2c2c1cc([C@H]1C[C@H](Oc3cnn4ccccc34)CN1C(=O)C1CC1)n2[C@H]1[C@H]2CN[C@@H]1C2 [Example 194]
30 | ≤ 100 nM | ≤ 100 nM |  |  | Cc1nc2c(F)c(-c3cccc(Cl)c3Cl)c(CCC#N)cc2c2c1cc([C@H]1C[C@H](n3cc(C4(C)CCC4)nn3)CN1C(=O)C1CC1)n2[C@H]1[C@H]2CN[C@@H]1C2 [Example 384]
31 | ≤ 100 nM | ≤ 100 nM |  |  | COc1ccccc1O[C@H]1C[C@H](c2cc3c(C)nc4c(F)c(-c5cccc(Cl)c5Cl)c(CCC#N)cc4c3n2[C@H]2[C@H]3CN[C@@H]2C3)N(C(=O)C2CC2)C1 [Example 250]
32 | ≤ 100 nM | ≤ 100 nM |  |  | Cc1cc(C)cc(CO[C@H]2C[C@H](c3cc4c(C)nc5c(F)c(-c6cccc(Cl)c6Cl)c(CCC#N)cc5c4n3[C@H]3[C@H]4CN[C@@H]3C4)N(C(=O)C3CC3)C2)c1 [Example 123]
33 | ≤ 100 nM | ≤ 100 nM |  |  | Cc1nc2c(F)c(-c3cccc(Cl)c3Cl)c(CCC#N)cc2c2c1cc([C@H]1C[C@H](Oc3ccc(C(F)(F)F)nc3)CN1C(=O)C1CC1)n2[C@H]1[C@H]2CN[C@@H]1C2 [Example 308]
34 | ≤ 100 nM | ≤ 100 nM |  |  | [2H]C([2H])(O[C@H]1C[C@H](c2cc3c(C)nc4c(F)c(-c5cccc(Cl)c5Cl)c(CCC#N)cc4c3n2[C@H]2[C@H]3CN[C@@H]2C3)N(C(=O)C2CC2)[C@@H]1C)c1cc(C)sn1 [Example 241]
35 | ≤ 100 nM | ≤ 100 nM |  |  | COc1cccc(CO[C@H]2C[C@H](c3cc4c(C)nc5c(F)c(-c6cccc(Cl)c6Cl)c(CCC#N)cc5c4n3[C@H]3[C@H]4CN[C@@H]3C4)N(C(=O)C3CC3)C2)c1F [Example 154]
36 | ≤ 100 nM | ≤ 100 nM |  |  | Cc1nc2c(F)c(-c3cccc(Cl)c3Cl)c(CCC#N)cc2c2c1cc([C@H]1C[C@H](OCc3cccc(C#N)c3F)CN1C(=O)C1CC1)n2[C@H]1[C@H]2CN[C@@H]1C2 [Example 151]
37 | ≤ 100 nM | ≤ 100 nM |  |  | Cc1nc2c(F)c(-c3cccc(Cl)c3Cl)c(CCC#N)cc2c2c1cc([C@H]1C[C@H](n3cc(C4CCOC4)nn3)CN1C(=O)C1CC1)n2[C@H]1C2CNC1C2 (some centres unmarked) [Example 181]
